In patent US20240108654A1, “COMBINATION OF A T CELL THERAPY AND A DGK INHIBITOR” (Juno Therapeutics, Inc., priority 2021, published 2024):

Assays:
[1] = test system: anti-CD19 CAR-expressing T cells; experiment: Rescue treatment of chronically stimulated CAR-T cells: cytolytic activity, 3D tumor spheroids; assay type: cell-based, human; conditions: rescue treatment during co-culture; A549.CD19 and Granta-519 spheroids, day 9
Protocol: Anti-CD19 CAR-expressing T cells, produced as described in Example 1, were chronically stimulated with plate-bound CAR-specific anti-idiotypic antibody for seven days as described in Example 2, but in the absence of Compound 17 during chronic stimulation. Instead, chronically stimulated CAR T cells were treated with Compound 17 during re-challenge with CD19-expressing tumor cells, after which cytolytic activity and cytokine production were assessed.
Cytolytic activity also was assessed in CD19-expressing tumor spheroid cultures incubated with chronically stimulated CAR-T cells in the presence of DGKi. A549 CD19+ tumor spheroids or Granta-519 tumor spheroids were incubated with the anti-CD19 CAR-expressing T cells at an effector to target ratio of 1:2 for up to 14 days in the presence of DGKi (0-1000 nM). The tumor spheroids were engineered to express a red fluorescent dye to permit monitoring of tumor cell lysis by microscopy during the assay. Cytolytic activity was assessed by monitoring fluorescence over time, and the tumor volume (normalized to time zero) was measured as the number of red calibrated units (RCU)×μm^2 area. […] Duplicate values for cell compositions manufactured from the two different healthy donors are shown.

anti-HPV16 eTCR T cells = experiment: Rescue treatment of chronically stimulated eTCR T cells: cytolytic function against HPV-expressing CaSki cells; assay type: cell-based, human; conditions: 100 nM compound during co-culture, 2.5:1 effector:target; eTCR cells pre-stimulated with 10 or 20 μg/mL anti-Vbeta
Text: Primary human CD4+ and CD8+ T cells were isolated from healthy donors by immunoaffinity-based methods. The isolated CD4+ and CD8+ T cells were combined and stimulated with an anti-CD3/anti-CD28 reagent, and then were transduced with a lentiviral vector encoding an anti-human papillomavirus 16 (anti-HPV16) eTCR. The nucleotide sequences encoding the beta chain and the alpha chain of the eTCR were separated by a sequence encoding a 2A ribosome skip element. Following transduction, the cells were cultured in media containing human serum and cytokines for 9-10 days prior to further assessment. To assess the effects of rescue treatment with Compound 17 on cytolytic function, eTCR cells were stimulated for six days using 10 μg/mL or 20 μg/mL plate-bound antibody against the TCR Vbeta chain in the absence of Compound 17. Following chronic stimulation, the eTCR-T cells were co-cultured with HPV-expressing CaSki cells at a 2.5:1 effector:target ratio in the presence of Compound 17 at 100 nM. As a control, chronically stimulated eTCR cells were co-cultured with CaSki cells in the absence of Compound 17. The CaSki cells were transduced with NucLight Red (NLR) and tumor cell number was monitored by Incucyte®.

Compound: CC[C@H]1CN([C@@H](CC)c2ccc(C(F)(F)F)cc2)[C@H](CC)CN1c1nc(=O)n(C)c2ccc(C#N)nc12 [Compound 17, 4-((2S,5R)-2,5-diethyl-4-((S)-1-(4-(trifluoromethyl)phenyl)propyl)piperazin-1-yl)-1-methyl-2-oxo-1,2-dihydropyrido[3,2-d]pyrimidine-6-carbonitrile]
- CAR-T cell cytolytic activity (normalized tumor volume) [1]: improved the cytolytic activity
- cytolytic function of chronically stimulated eTCR cells (CaSki tumor cell number) (anti-HPV16 eTCR T cells): able to improve cytolytic function
